Laboratory results from ChEMBL document CHEMBL1909046, “DrugMatrix in vitro pharmacology data”.

Experiments:
[1] = DRUGMATRIX: Sodium/nucleoside co-transporter radioligand binding (ligand: nitrobenzylthioinosine); assay type: cell membranes, Cavia porcellus, Dunkin-Hartley, Cerebral cortex, Membrane; details: Not Active = under 50% inhibition at 10 µM
[2] = molecular target: Beta-3 adrenergic receptor (Homo sapiens, UniProt P13945); experiment: DRUGMATRIX: Adrenergic beta3 radioligand binding (ligand: [125I] Cyanopindolol); assay type: cell membranes, HEK293, Membrane; details: Not Active = under 50% inhibition at 10 µM
[3] = molecular target: Sodium-dependent noradrenaline transporter (Homo sapiens, UniProt P23975); experiment: DRUGMATRIX: Norepinephrine Transporter radioligand binding (ligand: [125I] RTI-55); assay type: cell membranes, MDCK, Membrane; details: Not Active = under 50% inhibition at 10 µM
[4] = DRUGMATRIX: beta-Lactamase enzyme inhibition (substrate: Nitrocefin); set-up: species or system Bacillus cereus; details: Not Active = under 50% inhibition at 10 µM
[5] = molecular target: 5-hydroxytryptamine receptor 2B (Homo sapiens, UniProt P41595); assay type: cell membranes, CHO-K1, Membrane; details: cho-k1; also: in other assays of this panel Not Active means under 50% inhibition at 10 µM
[6] = molecular target: 5-hydroxytryptamine receptor 6 (Homo sapiens, UniProt P50406); assay type: cell membranes, HeLa, Membrane; details: hela; also: in other assays of this panel Not Active means under 50% inhibition at 10 µM
[7] = molecular target: T1, Thromboxane-A synthase (Homo sapiens, UniProt P24557); experiment: biochemical; assay type: tissue-based, Platelet;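 also: enzyme inhibition assay with PGH2 supplied as substrate; in other assays of this panel Not Active means under 50% inhibition at 10 µM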
T1 sequence (P24557 whole entry): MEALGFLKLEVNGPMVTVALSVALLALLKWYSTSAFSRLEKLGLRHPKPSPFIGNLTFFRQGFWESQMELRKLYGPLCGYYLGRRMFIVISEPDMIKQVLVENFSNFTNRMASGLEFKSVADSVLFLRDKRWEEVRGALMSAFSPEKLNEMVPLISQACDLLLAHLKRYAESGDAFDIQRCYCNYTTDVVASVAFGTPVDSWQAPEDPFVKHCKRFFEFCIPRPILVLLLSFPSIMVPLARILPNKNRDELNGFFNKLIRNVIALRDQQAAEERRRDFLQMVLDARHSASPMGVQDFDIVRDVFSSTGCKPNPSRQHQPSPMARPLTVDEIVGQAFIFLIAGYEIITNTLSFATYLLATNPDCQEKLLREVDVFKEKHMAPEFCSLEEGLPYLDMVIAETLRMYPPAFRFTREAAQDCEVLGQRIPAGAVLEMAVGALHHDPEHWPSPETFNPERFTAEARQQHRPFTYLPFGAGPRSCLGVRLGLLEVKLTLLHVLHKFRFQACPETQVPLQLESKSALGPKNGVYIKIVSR

[8] = molecular target: T2, C-X-C chemokine receptor type 1 (Homo sapiens, UniProt P25024); also: in other assays of this panel Not Active means under 50% inhibition at 10 µM
T2 sequence (P25024 whole entry): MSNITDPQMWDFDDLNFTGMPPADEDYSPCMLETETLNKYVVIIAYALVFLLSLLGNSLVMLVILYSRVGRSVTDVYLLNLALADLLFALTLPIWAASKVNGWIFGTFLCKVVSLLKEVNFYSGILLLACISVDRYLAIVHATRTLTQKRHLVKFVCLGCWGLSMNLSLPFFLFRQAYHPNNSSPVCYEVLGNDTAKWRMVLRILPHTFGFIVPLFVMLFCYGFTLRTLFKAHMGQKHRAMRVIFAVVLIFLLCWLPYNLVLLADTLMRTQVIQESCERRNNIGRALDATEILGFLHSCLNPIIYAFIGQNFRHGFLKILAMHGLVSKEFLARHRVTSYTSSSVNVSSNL

[9] = molecular target: D(3) dopamine receptor (Homo sapiens, UniProt P35462); experiment: DRUGMATRIX: Dopamine D3 radioligand binding (ligand: [3H] Spiperone); assay type: cell membranes, CHO, Membrane; details: cho
[10] = molecular target: T3, D(4) dopamine receptor (Homo sapiens, UniProt P21917); experiment: DRUGMATRIX: Dopamine D4.2 radioligand binding (ligand: [3H] Spiperone); assay type: cell membranes, CHO-K1, Membrane; details: cho-k1; Not Active = under 50% inhibition at 10 µM
T3 sequence (P21917 whole entry): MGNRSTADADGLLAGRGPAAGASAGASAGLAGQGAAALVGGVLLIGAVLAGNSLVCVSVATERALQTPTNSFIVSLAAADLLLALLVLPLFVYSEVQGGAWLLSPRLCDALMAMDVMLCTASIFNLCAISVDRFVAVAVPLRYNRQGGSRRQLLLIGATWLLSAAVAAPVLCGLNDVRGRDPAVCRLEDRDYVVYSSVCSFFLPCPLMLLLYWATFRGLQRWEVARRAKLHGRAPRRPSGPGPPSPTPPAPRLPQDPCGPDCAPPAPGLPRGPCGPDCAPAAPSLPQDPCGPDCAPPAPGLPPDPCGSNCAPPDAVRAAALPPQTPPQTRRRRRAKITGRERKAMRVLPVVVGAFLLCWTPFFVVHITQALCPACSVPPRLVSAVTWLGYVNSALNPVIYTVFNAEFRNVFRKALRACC

[11] = DRUGMATRIX: GABAA, Chloride Channel, TBOB radioligand binding (ligand: [3H] TBOB); assay type: cell membranes, Rattus norvegicus, Wistar, Cerebral cortex, Membrane; details: Not Active = under 50% inhibition at 10 µM
[12] = DRUGMATRIX: Glutamate, AMPA radioligand binding (ligand: [3H] AMPA); assay type: cell membranes, Rattus norvegicus, Wistar, Cerebral cortex, Membrane; details: Not Active = under 50% inhibition at 10 µM
[13] = DRUGMATRIX: Glutamate, Kainate radioligand binding (ligand: [3H] Kainic acid); assay type: cell membranes, Rattus norvegicus, Wistar, Brain, Membrane; details: Not Active = under 50% inhibition at 10 µM
[14] = molecular target: Glycine receptor (Rattus norvegicus, UniProt P22771+P24524+P07727+P20781); assay type: cell membranes, Wistar, Spinal cord, Membrane; also: in other assays of this panel Not Active means under 50% inhibition at 10 µM
[15] = molecular target: Histamine H2 receptor (Homo sapiens, UniProt P25021); assay type: cell membranes, CHO-K1, Membrane; details: cho-k1; also: in other assays of this panel Not Active means under 50% inhibition at 10 µM
[16] = DRUGMATRIX: Imidazoline I2, Central radioligand binding (ligand: [3H] Idazoxan); assay type: cell membranes, Rattus norvegicus, Wistar, Cerebral cortex, Membrane; details: Not Active = under 50% inhibition at 10 µM
[17] = DRUGMATRIX: Platelet-Derived Growth Factor (PDGF) radioligand binding (ligand: [125I] PDGF); assay type: cell-based; details: nih3t3; Not Active = under 50% inhibition at 10 µM

Sequence of Beta-3 adrenergic receptor (P13945 whole entry): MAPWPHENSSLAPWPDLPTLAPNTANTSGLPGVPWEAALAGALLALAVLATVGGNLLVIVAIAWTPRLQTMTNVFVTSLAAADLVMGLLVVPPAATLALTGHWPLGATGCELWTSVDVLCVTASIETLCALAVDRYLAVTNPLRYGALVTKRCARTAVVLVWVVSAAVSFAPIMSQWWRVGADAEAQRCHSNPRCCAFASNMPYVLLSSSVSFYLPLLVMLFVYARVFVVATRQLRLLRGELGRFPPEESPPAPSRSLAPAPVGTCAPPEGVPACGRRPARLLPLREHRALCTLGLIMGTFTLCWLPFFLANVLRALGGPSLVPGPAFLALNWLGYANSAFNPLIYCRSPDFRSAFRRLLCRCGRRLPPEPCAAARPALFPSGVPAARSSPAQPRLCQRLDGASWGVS
Sequence of Histamine H2 receptor (P25021 whole entry): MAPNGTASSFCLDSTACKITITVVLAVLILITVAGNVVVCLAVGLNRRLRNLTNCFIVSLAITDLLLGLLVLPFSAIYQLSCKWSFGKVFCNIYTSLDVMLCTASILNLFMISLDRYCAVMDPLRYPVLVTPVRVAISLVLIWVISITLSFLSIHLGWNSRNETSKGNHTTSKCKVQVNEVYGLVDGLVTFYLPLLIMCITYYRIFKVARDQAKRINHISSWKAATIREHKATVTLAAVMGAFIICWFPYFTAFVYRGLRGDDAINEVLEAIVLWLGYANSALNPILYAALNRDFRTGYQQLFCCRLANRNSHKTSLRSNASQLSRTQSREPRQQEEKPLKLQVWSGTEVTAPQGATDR
Sequence of 5-hydroxytryptamine receptor 6 (P50406 whole entry): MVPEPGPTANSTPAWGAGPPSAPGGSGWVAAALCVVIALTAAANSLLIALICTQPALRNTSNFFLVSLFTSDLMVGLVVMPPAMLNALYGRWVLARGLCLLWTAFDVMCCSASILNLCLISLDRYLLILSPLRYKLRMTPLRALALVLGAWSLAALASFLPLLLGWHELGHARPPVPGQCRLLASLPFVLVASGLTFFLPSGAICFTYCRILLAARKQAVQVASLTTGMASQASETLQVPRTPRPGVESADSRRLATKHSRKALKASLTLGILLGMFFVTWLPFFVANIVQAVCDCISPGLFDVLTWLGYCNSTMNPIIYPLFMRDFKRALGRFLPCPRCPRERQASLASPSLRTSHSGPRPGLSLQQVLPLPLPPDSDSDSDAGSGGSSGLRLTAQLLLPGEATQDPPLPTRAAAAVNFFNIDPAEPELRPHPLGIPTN
Sequence of Sodium-dependent noradrenaline transporter (P23975 whole entry): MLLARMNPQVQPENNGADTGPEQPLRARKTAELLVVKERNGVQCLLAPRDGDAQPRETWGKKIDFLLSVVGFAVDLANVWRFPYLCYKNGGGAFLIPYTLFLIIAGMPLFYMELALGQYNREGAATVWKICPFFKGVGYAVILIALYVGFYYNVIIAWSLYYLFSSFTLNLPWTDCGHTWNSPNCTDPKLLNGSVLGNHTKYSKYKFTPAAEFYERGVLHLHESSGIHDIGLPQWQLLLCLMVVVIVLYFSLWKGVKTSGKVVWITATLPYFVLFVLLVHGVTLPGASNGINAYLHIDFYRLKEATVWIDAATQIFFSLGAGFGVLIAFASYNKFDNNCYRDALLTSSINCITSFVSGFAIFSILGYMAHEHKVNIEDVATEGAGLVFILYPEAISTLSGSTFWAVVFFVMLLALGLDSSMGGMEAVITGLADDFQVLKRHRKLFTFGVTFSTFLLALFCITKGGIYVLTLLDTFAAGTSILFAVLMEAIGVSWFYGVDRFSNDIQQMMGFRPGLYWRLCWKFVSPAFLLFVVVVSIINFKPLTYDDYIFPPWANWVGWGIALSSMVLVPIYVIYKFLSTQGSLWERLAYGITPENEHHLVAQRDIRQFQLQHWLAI
Sequence of D(3) dopamine receptor (P35462 whole entry): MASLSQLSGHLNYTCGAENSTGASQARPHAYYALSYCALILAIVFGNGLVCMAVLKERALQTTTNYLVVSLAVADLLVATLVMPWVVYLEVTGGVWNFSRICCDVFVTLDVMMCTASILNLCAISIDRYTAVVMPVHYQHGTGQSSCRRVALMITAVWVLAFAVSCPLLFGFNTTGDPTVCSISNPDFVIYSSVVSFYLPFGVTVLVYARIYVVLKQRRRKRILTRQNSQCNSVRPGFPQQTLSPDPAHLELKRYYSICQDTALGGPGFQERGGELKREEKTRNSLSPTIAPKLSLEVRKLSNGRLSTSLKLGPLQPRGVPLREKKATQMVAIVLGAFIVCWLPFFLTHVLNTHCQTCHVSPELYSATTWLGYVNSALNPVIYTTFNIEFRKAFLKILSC
Sequence of 5-hydroxytryptamine receptor 2B (P41595 whole entry): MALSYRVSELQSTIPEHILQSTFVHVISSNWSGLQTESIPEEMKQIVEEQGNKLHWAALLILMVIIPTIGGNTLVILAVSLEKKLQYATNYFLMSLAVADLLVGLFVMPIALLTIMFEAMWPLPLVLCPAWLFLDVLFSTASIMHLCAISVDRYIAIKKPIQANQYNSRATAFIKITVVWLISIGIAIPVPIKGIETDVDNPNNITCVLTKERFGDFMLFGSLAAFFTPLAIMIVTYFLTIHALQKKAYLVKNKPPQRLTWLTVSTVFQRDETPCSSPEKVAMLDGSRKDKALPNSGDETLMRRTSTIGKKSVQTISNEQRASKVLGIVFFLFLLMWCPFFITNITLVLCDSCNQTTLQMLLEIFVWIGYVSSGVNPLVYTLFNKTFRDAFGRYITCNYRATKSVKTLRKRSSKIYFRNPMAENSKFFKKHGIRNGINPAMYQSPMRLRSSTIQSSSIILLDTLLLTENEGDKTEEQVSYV

SMILES | IC50 [1] | Ki [1] | IC50 [4] | Ki [4] | IC50 [5] | IC50 [6] | IC50 [8] | IC50 [9] | IC50 [10] | IC50 [11] | Ki [11] | IC50 [12] | Ki [12] | IC50 [13] | Ki [13] | IC50 [14] | IC50 [15] | IC50 [16] | Ki [16] | IC50 [17] | other results
CCCCCCCCCc1ccc(O)cc1 [4-NONYLPHENOL] | Not Active | Not Active | Not Active | Not Active | Not Active | Not Active | Not Active | Not Active | Not Active | Not Active | Not Active | Not Active | Not Active | Not Active | Not Active | Not Active | Not Active | Not Active | Not Active | Not Active | IC50 ([2]; read-out: IC50): 4.19 µM; Ki ([2]; read-out: Ki): 3.14 µM; IC50 ([3]; read-out: IC50): 1.25 µM; Ki ([3]; read-out: Ki): 1.24 µM; IC50 ([7]; platelet): Not Active; Ki [17]: Not Active
COc1ccc2c(c1)c(CC(=O)OCC(=O)O)c(C)n2C(=O)c1ccc(Cl)cc1 [ACEMETACIN] | Not Active | Not Active | Not Active | Not Active | Not Active | Not Active | Not Active | Not Active | Not Active | Not Active | Not Active | Not Active | Not Active | Not Active | Not Active | Not Active | Not Active | Not Active | Not Active | Not Active | IC50 ([2]; hek293): Not Active; IC50 ([3]; mdck): Not Active; IC50 ([7]; platelet): Not Active; Ki [17]: Not Active
CCCSc1ccc2nc(NC(=O)OC)[nH]c2c1 [ALBENDAZOLE] | Not Active | Not Active | Not Active | Not Active | Not Active | Not Active | Not Active | Not Active | Not Active | Not Active | Not Active | Not Active | Not Active | Not Active | Not Active | Not Active | Not Active | Not Active | Not Active | Not Active | IC50 ([2]; hek293): Not Active; IC50 ([3]; mdck): Not Active; IC50 ([7]; platelet): Not Active; Ki [17]: Not Active
O=c1cc(-c2ccccc2)oc2c1ccc1ccccc12 [ALPHA-NAPHTHOFLAVONE] | Not Active | Not Active | Not Active | Not Active | Not Active | Not Active | Not Active | Not Active | Not Active | Not Active | Not Active | Not Active | Not Active | Not Active | Not Active | Not Active | Not Active | Not Active | Not Active | Not Active | IC50 ([2]; hek293): Not Active; IC50 ([3]; mdck): Not Active; IC50 ([7]; read-out: IC50): 6.76 µM; Ki [17]: Not Active
NCC[C@H](O)C(=O)N[C@@H]1C[C@H](N)[C@@H](O[C@H]2O[C@H](CN)[C@@H](O)[C@H](O)[C@H]2O)[C@H](O)[C@H]1O[C@H]1O[C@H](CO)[C@@H](O)[C@H](N)[C@H]1O [AMIKACIN] | Not Active | Not Active | Not Active | Not Active | Not Active | Not Active | Not Active | Not Active | Not Active | Not Active | Not Active | Not Active | Not Active | Not Active | Not Active | Not Active | Not Active | Not Active | Not Active | Not Active | IC50 ([2]; hek293): Not Active; IC50 ([3]; mdck): Not Active; IC50 ([7]; platelet): Not Active; Ki [17]: Not Active
